From publication PMC10587743 (RSC Advances, 2023)
Like-named read-outs stand apart in the source and are kept apart here.

What was measured:
[1] = test system: A549 lung cancer cell lines; conditions: cited from earlier work
[2] = test system: HCT-116 colon cancer cell line; assay: MTT cytotoxicity assay, HCT-116; conditions: Homo sapiens, HCT-116, read-out: In vitro cytotoxicity IC50, HCT-116
[3] = test system: MCF-7 breast cancer cell line; assay: MTT cytotoxicity assay, MCF-7; conditions: Homo sapiens, MCF7, read-out: In vitro cytotoxicity IC50, MCF-7
[4] = test system: HePG2 liver cancer cell line; assay: MTT cytotoxicity assay, HePG2; format: cell-based; conditions: Homo sapiens, HepG2, read-out: In vitro cytotoxicity IC50, HePG2
P-gp in HepG-2/ADR cells = assay: Quantitative real-time PCR for P-glycoprotein; format: cell-based, human; conditions: 72 h, control HepG2 = 1
[5] = test system: HePG-2, HCT-116, and MCF-7 cell lines; assay: MTT cytotoxicity, range over the three cell lines; format: cell-based; conditions: 144 h, read-out: IC50 values ranging over HePG-2, HCT-116, and MCF-7 cell lines
EGFR TK = EGFR TK (Homo sapiens, UniProt P00533); assay: EGFR kinase inhibition assay; format: biochemical
Sequence of EGFR TK (P00533 25-1210): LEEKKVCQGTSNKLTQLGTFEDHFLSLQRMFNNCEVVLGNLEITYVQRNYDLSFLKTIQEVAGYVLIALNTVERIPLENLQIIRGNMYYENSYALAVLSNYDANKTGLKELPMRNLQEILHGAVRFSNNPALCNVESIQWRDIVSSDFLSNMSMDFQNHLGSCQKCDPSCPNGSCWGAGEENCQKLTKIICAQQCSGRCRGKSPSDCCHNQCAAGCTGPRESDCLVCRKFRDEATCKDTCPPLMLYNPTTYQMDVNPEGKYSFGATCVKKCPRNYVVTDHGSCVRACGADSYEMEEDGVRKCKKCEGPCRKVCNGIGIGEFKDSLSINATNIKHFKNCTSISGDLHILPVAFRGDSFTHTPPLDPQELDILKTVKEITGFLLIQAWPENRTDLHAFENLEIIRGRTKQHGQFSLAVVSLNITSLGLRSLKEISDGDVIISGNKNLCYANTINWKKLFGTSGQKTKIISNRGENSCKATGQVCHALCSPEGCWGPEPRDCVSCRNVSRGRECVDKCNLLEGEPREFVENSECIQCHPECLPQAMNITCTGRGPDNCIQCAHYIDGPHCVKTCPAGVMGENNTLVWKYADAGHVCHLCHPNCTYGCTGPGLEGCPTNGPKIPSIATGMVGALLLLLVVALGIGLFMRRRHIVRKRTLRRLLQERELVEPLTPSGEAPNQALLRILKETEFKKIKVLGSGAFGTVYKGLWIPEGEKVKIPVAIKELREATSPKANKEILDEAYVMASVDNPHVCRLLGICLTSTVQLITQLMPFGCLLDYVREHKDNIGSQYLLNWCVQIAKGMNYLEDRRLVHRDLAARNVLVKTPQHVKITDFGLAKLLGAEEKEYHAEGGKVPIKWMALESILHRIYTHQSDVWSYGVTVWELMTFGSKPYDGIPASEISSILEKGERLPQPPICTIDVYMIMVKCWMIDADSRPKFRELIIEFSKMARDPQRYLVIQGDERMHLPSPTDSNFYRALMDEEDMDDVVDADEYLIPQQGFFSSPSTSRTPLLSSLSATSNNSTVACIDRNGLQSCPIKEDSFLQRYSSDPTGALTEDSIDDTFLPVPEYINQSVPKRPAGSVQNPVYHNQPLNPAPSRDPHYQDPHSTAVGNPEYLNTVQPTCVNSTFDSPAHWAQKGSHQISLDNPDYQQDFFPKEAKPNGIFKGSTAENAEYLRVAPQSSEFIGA

CDK-2 = CDK-2 (Homo sapiens, UniProt P24941); assay: CDK-2 kinase inhibition assay; format: biochemical
HCT-116 cells [6] = assay: Cell cycle analysis by flow cytometry; format: cell-based; conditions: HCT-116, 6o at IC50 (5.84 μM); control 42.94%
HCT-116 cells [7] = assay: Annexin V-FITC/PI apoptosis assay; format: cell-based; conditions: HCT-116, 6o at IC50
leukemia L1210 cells = conditions: read-out: IC50 against leukemia L1210 cells; cited from earlier work
[8] = test system: breast cancer cell line (MCF-7); conditions: read-out: IC50 on breast cancer cell line (MCF-7); cited from earlier work

Structure (SMILES) | IC50 [2] [µM] | IC50 [3] [µM] | IC50 [4] [µM] | further results
O=c1[nH]cc(F)c(=O)[nH]1 [5-fluorouracil] |  |  |  | IC50 ([1]; read-out: IC50 against A549 lung cancer cell lines): < 5 µM
N#Cc1c(N2C(=O)c3ccc(F)cc3C2=O)c(C(=O)Nc2ccccc2)n2c1CCC2 [Compound 6a, 7-Cyano-6-(5-fluoro-1,3-dioxoisoindolin-2-yl)-N-phenyl-2,3-dihydro-1H-pyrrolizine-5-carboxamide] | > 100 | 93.5 ± 4.7 | 85.1 ± 4.1 | 
Cc1ccc(NC(=O)c2c(N3C(=O)c4ccc(F)cc4C3=O)c(C#N)c3n2CCC3)cc1 [Compound 6b, 7-Cyano-6-(5-fluoro-1,3-dioxoisoindolin-2-yl)-N-(p-tolyl)-2,3-dihydro-1H-pyrrolizine-5-carboxamide] | 66.3 ± 3.1 | 58.1 ± 3.3 | 55.4 ± 3.2 | 
N#Cc1c(N2C(=O)c3ccccc3C2=O)c(C(=O)Nc2ccc(F)cc2)n2c1CCC2 [Compound 6c, 7-Cyano-6-(1,3-dioxoisoindolin-2-yl)-N-(4-fluorophenyl)-2,3-dihydro-1H-pyrrolizine-5-carboxamide] | 47.9 ± 2.6 | 54.6 ± 3.1 | 49.1 ± 2.9 | 
N#Cc1c(N2C(=O)c3ccc(F)cc3C2=O)c(C(=O)Nc2ccc(F)cc2)n2c1CCC2 [Compound 6d, 7-Cyano-6-(5-fluoro-1,3-dioxoisoindolin-2-yl)-N-(4-fluorophenyl)-2,3-dihydro-1H-pyrrolizine-5-carboxamide] | 9.49 ± 0.6 | 13.9 ± 0.9 | 7.97 ± 0.5 | P-gp RT-PCR fold change (P-gp in HepG-2/ADR cells): 0.4097 fold; IC50 [5]: 6.02 to 13.9 µM; IC50 (EGFR TK): 0.362 ± 0.008 µM
COc1ccc(NC(=O)c2c(N3C(=O)c4ccccc4C3=O)c(C#N)c3n2CCC3)cc1 [Compound 6e, 7-Cyano-6-(1,3-dioxoisoindolin-2-yl)-N-(4-methoxyphenyl)-2,3-dihydro-1H-pyrrolizine-5-carboxamide] | 38.1 ± 2.4 | 42.7 ± 2.5 | 45.4 ± 2.5 | 
COc1ccc(NC(=O)c2c(N3C(=O)c4ccc(F)cc4C3=O)c(C#N)c3n2CCC3)cc1 [Compound 6f, 7-Cyano-6-(5-fluoro-1,3-dioxoisoindolin-2-yl)-N-(4-methoxyphenyl)-2,3-dihydro-1H-pyrrolizine-5-carboxamide] | > 100 | > 100 | 88.3 ± 4.3 | 
N#Cc1c(N2C(=O)c3ccc(F)cc3C2=O)c(C(=O)Nc2ccc(Cl)cc2)n2c1CCC2 [Compound 6g, N-(4-Chlorophenyl)-7-cyano-6-(5-fluoro-1,3-dioxoisoindolin-2-yl)-2,3-dihydro-1H-pyrrolizine-5-carboxamide] | 60.2 ± 3.3 | 69.4 ± 3.7 | 52 ± 2.8 | 
N#Cc1c(N2C(=O)c3ccccc3C2=O)c(C(=O)Nc2ccc(Br)cc2)n2c1CCC2 [Compound 6h, N-(4-Bromophenyl)-7-cyano-6-(1,3-dioxoisoindolin-2-yl)-2,3-dihydro-1H-pyrrolizine-5-carboxamide] | > 100 | > 100 | 91.4 ± 4.8 | 
N#Cc1c(N2C(=O)c3ccc(F)cc3C2=O)c(C(=O)Nc2ccc(Br)cc2)n2c1CCC2 [Compound 6i, N-(4-Bromophenyl)-7-cyano-6-(5-fluoro-1,3-dioxoisoindolin-2-yl)-2,3-dihydro-1H-pyrrolizine-5-carboxamide] | 14.3 ± 1.1 | 25.3 ± 2 | 20.4 ± 1.5 | 
N#Cc1c(N2C(=O)c3ccccc3C2=O)c(C(=O)Nc2ccccc2)n2c1CCCC2 [Compound 6j, 1-Cyano-2-(1,3-dioxoisoindolin-2-yl)-N-phenyl-5,6,7,8-tetrahydroindolizine-3-carboxamide] | 22.1 ± 1.6 | 31.3 ± 2.3 | 34.1 ± 1.9 | 
N#Cc1c(N2C(=O)c3ccc(F)cc3C2=O)c(C(=O)Nc2ccccc2)n2c1CCCC2 [Compound 6k, 1-Cyano-2-(5-fluoro-1,3-dioxoisoindolin-2-yl)-N-phenyl-5,6,7,8-tetrahydroindolizine-3-carboxamide] | 83.7 ± 4 | 80.6 ± 4.1 | 78.2 ± 3.8 | 
Cc1ccc(NC(=O)c2c(N3C(=O)c4ccccc4C3=O)c(C#N)c3n2CCCC3)cc1 [Compound 6l, 1-Cyano-2-(1,3-dioxoisoindolin-2-yl)-N-(p-tolyl)-5,6,7,8-tetrahydroindolizine-3-carboxamide] | 57.5 ± 3.1 | 63.2 ± 3.5 | 61.6 ± 3.5 | 
Cc1ccc(NC(=O)c2c(N3C(=O)c4ccc(F)cc4C3=O)c(C#N)c3n2CCCC3)cc1 [Compound 6m, 1-Cyano-2-(5-fluoro-1,3-dioxoisoindolin-2-yl)-N-(p-tolyl)-5,6,7,8-tetrahydroindolizine-3-carboxamide] | 28.4 ± 1.9 | 19.9 ± 1.4 | 12 ± 0.8 | IC50 (CDK-2): 0.402 ± 0.086 µM; P-gp RT-PCR fold change (P-gp in HepG-2/ADR cells): 0.6754 fold; IC50 (EGFR TK): 0.13 ± 0.011 µM
N#Cc1c(N2C(=O)c3ccccc3C2=O)c(C(=O)Nc2ccc(F)cc2)n2c1CCCC2 [Compound 6n, 1-Cyano-2-(1,3-dioxoisoindolin-2-yl)-N-(4-fluorophenyl)-5,6,7,8-tetrahydroindolizine-3-carboxamide] | 71.3 ± 3.5 | 75.8 ± 3.9 | 65.4 ± 3.7 | 
N#Cc1c(N2C(=O)c3ccc(F)cc3C2=O)c(C(=O)Nc2ccc(F)cc2)n2c1CCCC2 [Compound 6o, 1-Cyano-2-(5-fluoro-1,3-dioxoisoindolin-2-yl)-N-(4-fluorophenyl)-5,6,7,8-tetrahydroindolizine-3-carboxamide] | 5.84 ± 0.2 | 8.89 ± 0.5 | 6.02 ± 0.3 | IC50 (CDK-2): 0.118 ± 0.016 µM; P-gp RT-PCR fold change (P-gp in HepG-2/ADR cells): 0.2732 fold; IC50 [5]: 6.02 to 13.9 µM; IC50 (EGFR TK): 0.062 ± 0.003 µM; Cells in G1 phase (HCT-116 cells [6]): 48.75%; Late cellular apoptosis (HCT-116 cells [7]; DMSO control 0.16%, upper right quadrant): 26.51%; Early cellular apoptosis (HCT-116 cells [7]; DMSO control 0.52%, lower right quadrant): 15.16%; Total cellular apoptosis (HCT-116 cells [7]; DMSO control 2.61%): 49.16%
COc1ccc(NC(=O)c2c(N3C(=O)c4ccccc4C3=O)c(C#N)c3n2CCCC3)cc1 [Compound 6p, 1-Cyano-2-(1,3-dioxoisoindolin-2-yl)-N-(4-methoxyphenyl)-5,6,7,8-tetrahydroindolizine-3-carboxamide] | 79.6 ± 3.7 | 86.9 ± 4.3 | 73.3 ± 3.9 | 
COc1ccc(NC(=O)c2c(N3C(=O)c4ccc(F)cc4C3=O)c(C#N)c3n2CCCC3)cc1 [Compound 6q, 1-Cyano-2-(5-fluoro-1,3-dioxoisoindolin-2-yl)-N-(4-methoxyphenyl)-5,6,7,8-tetrahydroindolizine-3-carboxamide] | 32.2 ± 2.2 | 37.4 ± 2.6 | 41.2 ± 2.3 | 
COc1cccc2c1C(=O)c1c(O)c3c(c(O)c1C2=O)C[C@@](O)(C(=O)CO)C[C@@H]3O[C@H]1C[C@H](N)[C@H](O)[C@H](C)O1 [DOX, Doxorubicin, reference compound] |  |  | 4.5 ± 0.2 | 
O=C(c1ccccc1)c1ccc2n1CCC2C(=O)O (centres unmarked) [Ketorolac] |  |  |  | IC50 ([1]; read-out: IC50 against lung cancer cell lines A549): ~13 µM
COc1ccc(-c2csc3c2-n2cccc2C3=O)cc1O [MR22388] |  |  |  | IC50 (leukemia L1210 cells): 0.015 µM
CC/C(=C(\c1ccccc1)c1ccc(OCCN(C)C)cc1)c1ccccc1 [Tamoxifen, reference compound] |  |  |  | P-gp RT-PCR fold change (P-gp in HepG-2/ADR cells): 0.2176 fold
CC1(C)Cc2c(-c3ccccc3)c(-c3ccc(Cl)cc3)c(CC(=O)O)n2C1 [licofelone] |  |  |  | IC50 [8]: 5.5 µM
